# Data: patent publication US11203601B2, “Tricyclic compounds as glycogen synthase kinase 3 (GSK3) inhibitors and uses thereof” (The Broad Institute, Inc., priority 2017, dated 2021)
# Legend:
# Assay in all cases: Carna kinome panel
# Format in all cases: biochemical
# EGFR(d746-750/T790M) = EGFR(d746-750/T790M) (Homo sapiens (Human), UniProt P00533, DEL746-750/T790M); conditions: read-out: % Inhibition at 10 μM of the test compound
# MNK2 = MNK2 (Homo sapiens (Human), UniProt Q9HBH9); conditions: read-out: % Inhibition at 10 μM of the test compound
# MER = MER (Homo sapiens (Human), UniProt Q12866); conditions: read-out: % Inhibition at 10 μM of the test compound
# PASK = PASK (Homo sapiens (Human), UniProt Q96RG2); conditions: read-out: % Inhibition at 10 μM of the test compound
# LYNb = LYNb (Homo sapiens (Human), UniProt P07948); conditions: read-out: % Inhibition at 10 μM of the test compound
# HER2 = HER2 (Homo sapiens (Human), UniProt P04626); conditions: read-out: % Inhibition at 10 μM of the test compound
# SGK = SGK (Homo sapiens (Human), UniProt O00141); conditions: read-out: % Inhibition at 10 μM of the test compound
# TRKA = TRKA (Homo sapiens (Human), UniProt P04629); conditions: read-out: % Inhibition at 10 μM of the test compound
# BRSK1 = BRSK1 (Homo sapiens (Human), UniProt Q8TDC3); conditions: read-out: % Inhibition at 10 μM of the test compound
# MET = MET (Homo sapiens (Human), UniProt P08581); conditions: read-out: % Inhibition at 10 μM of the test compound
# PKCι = PKCι (Homo sapiens (Human), UniProt P41743); conditions: read-out: % Inhibition at 10 μM of the test compound
# FRK = FRK (Homo sapiens (Human), UniProt P42685); conditions: read-out: % Inhibition at 10 μM of the test compound
# Chain of FRK (P42685 whole entry): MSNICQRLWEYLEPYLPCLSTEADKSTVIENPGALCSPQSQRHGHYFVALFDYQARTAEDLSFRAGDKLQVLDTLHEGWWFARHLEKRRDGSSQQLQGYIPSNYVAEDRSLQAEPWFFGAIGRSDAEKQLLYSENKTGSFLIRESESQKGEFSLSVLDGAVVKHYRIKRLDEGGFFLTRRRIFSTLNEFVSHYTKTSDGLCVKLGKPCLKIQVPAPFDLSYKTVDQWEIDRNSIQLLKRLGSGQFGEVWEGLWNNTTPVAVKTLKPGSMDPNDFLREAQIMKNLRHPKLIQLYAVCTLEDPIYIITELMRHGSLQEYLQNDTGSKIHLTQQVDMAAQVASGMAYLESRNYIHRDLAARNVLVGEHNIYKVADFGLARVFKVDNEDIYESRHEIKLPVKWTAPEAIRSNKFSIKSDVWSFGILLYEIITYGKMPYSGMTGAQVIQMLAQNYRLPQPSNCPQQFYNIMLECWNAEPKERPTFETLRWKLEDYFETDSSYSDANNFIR
# FGFR4(V550E) = FGFR4(V550E) (Homo sapiens (Human), UniProt P22455, V550E); conditions: read-out: % Inhibition at 10 μM of the test compound
# PLK1 = PLK1 (Homo sapiens (Human), UniProt P53350); conditions: read-out: % Inhibition at 10 μM of the test compound
# MAP3K1_Cascade = tested on: MAP3K1_Cascade
# Method: Briefly, a selection of compounds was screened against a panel of kinases at a single concentration of 10 μM. […] This was completed using one of two assays, depending on the kinase being examined: 1) IMAP Assay. A solution of 4× inhibitor, 4× substrate/ATP/metal solution and 2× kinase solution was prepared with assay buffer (20 mM HEPES, 0.01% Tween-20, 2 mM DTT, pH 7.4) and mixed, then incubated in 384-well black plates for 1 hour at room temperature. The IMAP binding reagent (IMAP Screening Express kit; Molecular Devices) was added to each well and incubated for 30 minutes. […] 2) Off-Chip Mobility Shift Assay (MSA). A solution of 4× inhibitor, 4× substrate/ATP/metal solution and 2× kinase solution was prepared with assay buffer (20 mM HEPES, 0.01% Triton X-100, 2 mM DTT, pH 7.5) and mixed, then incubated in 384-well plates for 1 or 5 hours depending on the kinase, at room temperature. Termination buffer (QuickScout Screening assist MSA; Carna Biosciences) was added to each well. The entire reaction mixture was then applied to a LabChip3000 system (Caliper Life Science), and the product and substrate peptide peaks were separated and quantified. […] The entire reaction mixture was then applied to a LabChip3000 system (Caliper Life Science), and the product and substrate peptide peaks were separated and quantified.
# AKT1 = AKT1 (Homo sapiens (Human), UniProt P31749); conditions: read-out: % Inhibition at 10 μM of the test compound
# MGC42105 = MGC42105 (Homo sapiens (Human), UniProt Q8IY84); conditions: read-out: % Inhibition at 10 μM of the test compound
# SPHK2 = SPHK2 (Homo sapiens (Human), UniProt Q9NRA0); conditions: read-out: % Inhibition at 10 μM of the test compound
# Chain of SPHK2 (Q9NRA0 whole entry): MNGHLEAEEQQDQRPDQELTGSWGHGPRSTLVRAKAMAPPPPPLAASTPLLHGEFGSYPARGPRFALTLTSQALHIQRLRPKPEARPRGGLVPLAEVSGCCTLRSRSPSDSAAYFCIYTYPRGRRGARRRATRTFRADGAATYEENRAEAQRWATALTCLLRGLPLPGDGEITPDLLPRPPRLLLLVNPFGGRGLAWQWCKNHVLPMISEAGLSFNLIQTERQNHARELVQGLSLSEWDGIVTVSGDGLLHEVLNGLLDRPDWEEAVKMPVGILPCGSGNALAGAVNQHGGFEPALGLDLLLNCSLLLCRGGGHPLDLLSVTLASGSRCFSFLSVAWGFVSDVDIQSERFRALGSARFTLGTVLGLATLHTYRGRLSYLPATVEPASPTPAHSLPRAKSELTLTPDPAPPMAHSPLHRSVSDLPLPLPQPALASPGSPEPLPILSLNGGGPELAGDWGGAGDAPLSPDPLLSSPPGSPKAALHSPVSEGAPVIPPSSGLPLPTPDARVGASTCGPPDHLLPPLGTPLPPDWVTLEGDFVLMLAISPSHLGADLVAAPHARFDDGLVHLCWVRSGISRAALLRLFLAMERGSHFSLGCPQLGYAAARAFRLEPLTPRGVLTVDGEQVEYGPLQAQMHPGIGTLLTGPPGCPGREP
# DYRK3 = DYRK3 (Homo sapiens (Human), UniProt O43781); conditions: read-out: % Inhibition at 10 μM of the test compound
# ALK = ALK (Homo sapiens (Human), UniProt Q9UM73); conditions: read-out: % Inhibition at 10 μM of the test compound
# PDHK2 = PDHK2 (Homo sapiens (Human), UniProt Q15119); conditions: read-out: % Inhibition at 10 μM of the test compound
# JNK3 = JNK3 (Homo sapiens (Human), UniProt P53779); conditions: read-out: % Inhibition at 10 μM of the test compound
# JNK1 = JNK1 (Homo sapiens (Human), UniProt P45983); conditions: read-out: % Inhibition at 10 μM of the test compound
# PKCε = PKCε (Homo sapiens (Human), UniProt Q02156); conditions: read-out: % Inhibition at 10 μM of the test compound
# FGFR3(K650E) = FGFR3(K650E) (Homo sapiens (Human), UniProt P22607, K650E); conditions: read-out: % Inhibition at 10 μM of the test compound
# CaMK2α = CaMK2α (Homo sapiens (Human), UniProt Q9UQM7); conditions: read-out: % Inhibition at 10 μM of the test compound
# CK1γ1 = CK1γ1 (Homo sapiens (Human), UniProt Q9HCP0); conditions: read-out: % Inhibition at 10 μM of the test compound
# PKR = PKR (Homo sapiens (Human), UniProt P19525); conditions: read-out: % Inhibition at 10 μM of the test compound
# EPHA2 = EPHA2 (Homo sapiens (Human), UniProt P29317); conditions: read-out: % Inhibition at 10 μM of the test compound
# Chain of EPHA2 (P29317 24-976): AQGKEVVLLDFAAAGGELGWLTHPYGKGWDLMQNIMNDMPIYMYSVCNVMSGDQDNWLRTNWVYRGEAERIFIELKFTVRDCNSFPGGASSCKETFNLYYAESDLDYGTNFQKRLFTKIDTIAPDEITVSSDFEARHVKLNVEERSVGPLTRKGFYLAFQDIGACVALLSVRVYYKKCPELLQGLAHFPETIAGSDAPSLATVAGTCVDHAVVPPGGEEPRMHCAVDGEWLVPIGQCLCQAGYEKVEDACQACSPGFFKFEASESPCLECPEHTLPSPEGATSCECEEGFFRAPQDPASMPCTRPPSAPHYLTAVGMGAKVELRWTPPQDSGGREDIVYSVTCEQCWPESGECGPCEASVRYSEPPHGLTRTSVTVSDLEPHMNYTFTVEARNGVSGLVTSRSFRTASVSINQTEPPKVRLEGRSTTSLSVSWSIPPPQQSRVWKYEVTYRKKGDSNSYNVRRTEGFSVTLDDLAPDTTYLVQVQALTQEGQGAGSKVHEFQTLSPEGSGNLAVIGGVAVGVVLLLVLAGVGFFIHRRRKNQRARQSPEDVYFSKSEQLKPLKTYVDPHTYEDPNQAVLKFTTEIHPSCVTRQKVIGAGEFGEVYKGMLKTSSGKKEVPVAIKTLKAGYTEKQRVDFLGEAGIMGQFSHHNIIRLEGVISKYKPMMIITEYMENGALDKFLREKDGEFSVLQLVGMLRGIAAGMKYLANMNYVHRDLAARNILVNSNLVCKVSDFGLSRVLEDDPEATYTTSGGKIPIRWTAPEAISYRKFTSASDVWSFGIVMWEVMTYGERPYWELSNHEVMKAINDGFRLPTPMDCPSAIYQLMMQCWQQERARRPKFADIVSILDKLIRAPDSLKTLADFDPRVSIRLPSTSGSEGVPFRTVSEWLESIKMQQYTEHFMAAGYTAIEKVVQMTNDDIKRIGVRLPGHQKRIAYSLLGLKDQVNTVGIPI
# MNK1 = MNK1 (Homo sapiens (Human), UniProt Q9BUB5); conditions: read-out: % Inhibition at 10 μM of the test compound
# MSK1 = MSK1 (Homo sapiens (Human), UniProt O75582); conditions: read-out: % Inhibition at 10 μM of the test compound
# PDGFRβ = PDGFRβ (Homo sapiens (Human), UniProt P09619); conditions: read-out: % Inhibition at 10 μM of the test compound
# CDK2/CycA2 = CDK2/CycA2 (Homo sapiens (Human), UniProt P24941)
# From the text: (§1) 2) Off-Chip Mobility Shift Assay (MSA).
# CDK3/CycE1 = CDK3/CycE1 (Homo sapiens (Human), UniProt Q00526)
# From the text: as §1
# CDK2/CycE1 = CDK2/CycE1 (Homo sapiens (Human), UniProt P24941)
# From the text: as §1
# CDK9/CycT1 = CDK9/CycT1 (Homo sapiens (Human), UniProt P50750)
# Chain of CDK9/CycT1 (P50750 whole entry, looked up): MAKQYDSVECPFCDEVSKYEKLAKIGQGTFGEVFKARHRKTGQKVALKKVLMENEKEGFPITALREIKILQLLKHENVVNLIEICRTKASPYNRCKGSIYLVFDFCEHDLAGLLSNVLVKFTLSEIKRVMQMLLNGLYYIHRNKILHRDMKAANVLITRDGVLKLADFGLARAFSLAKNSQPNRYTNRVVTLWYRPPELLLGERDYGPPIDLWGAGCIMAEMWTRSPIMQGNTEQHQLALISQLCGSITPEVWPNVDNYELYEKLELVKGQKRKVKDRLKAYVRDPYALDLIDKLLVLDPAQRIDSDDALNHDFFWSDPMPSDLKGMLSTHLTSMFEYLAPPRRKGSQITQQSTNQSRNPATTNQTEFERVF
# Chain of CDK9/CycT1 (O60563 whole entry partner, looked up): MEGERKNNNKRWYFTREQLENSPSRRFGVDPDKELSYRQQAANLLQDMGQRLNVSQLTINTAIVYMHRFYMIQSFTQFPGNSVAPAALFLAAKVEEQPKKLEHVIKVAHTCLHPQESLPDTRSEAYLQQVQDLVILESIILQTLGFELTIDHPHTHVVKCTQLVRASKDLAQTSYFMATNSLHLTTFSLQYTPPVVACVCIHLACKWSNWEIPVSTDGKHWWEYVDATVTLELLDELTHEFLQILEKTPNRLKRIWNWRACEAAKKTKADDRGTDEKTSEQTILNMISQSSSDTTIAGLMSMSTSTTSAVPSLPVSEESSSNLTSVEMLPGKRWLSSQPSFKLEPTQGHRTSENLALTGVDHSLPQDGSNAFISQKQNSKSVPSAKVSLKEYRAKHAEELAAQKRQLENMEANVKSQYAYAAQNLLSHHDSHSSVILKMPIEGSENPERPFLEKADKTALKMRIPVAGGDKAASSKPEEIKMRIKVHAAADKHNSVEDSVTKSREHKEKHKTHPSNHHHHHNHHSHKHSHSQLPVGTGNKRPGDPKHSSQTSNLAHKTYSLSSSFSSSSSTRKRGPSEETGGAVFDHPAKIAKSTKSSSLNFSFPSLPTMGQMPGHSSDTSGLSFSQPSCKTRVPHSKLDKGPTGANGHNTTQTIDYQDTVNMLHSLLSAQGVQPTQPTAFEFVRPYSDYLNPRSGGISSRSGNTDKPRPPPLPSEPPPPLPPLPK
# From the text: as §1
# PIK3CA/PIK3R1 = PIK3CA/PIK3R1 (Homo sapiens (Human), UniProt P42336)
# Chain of PIK3CA/PIK3R1 (P42336 whole entry, looked up): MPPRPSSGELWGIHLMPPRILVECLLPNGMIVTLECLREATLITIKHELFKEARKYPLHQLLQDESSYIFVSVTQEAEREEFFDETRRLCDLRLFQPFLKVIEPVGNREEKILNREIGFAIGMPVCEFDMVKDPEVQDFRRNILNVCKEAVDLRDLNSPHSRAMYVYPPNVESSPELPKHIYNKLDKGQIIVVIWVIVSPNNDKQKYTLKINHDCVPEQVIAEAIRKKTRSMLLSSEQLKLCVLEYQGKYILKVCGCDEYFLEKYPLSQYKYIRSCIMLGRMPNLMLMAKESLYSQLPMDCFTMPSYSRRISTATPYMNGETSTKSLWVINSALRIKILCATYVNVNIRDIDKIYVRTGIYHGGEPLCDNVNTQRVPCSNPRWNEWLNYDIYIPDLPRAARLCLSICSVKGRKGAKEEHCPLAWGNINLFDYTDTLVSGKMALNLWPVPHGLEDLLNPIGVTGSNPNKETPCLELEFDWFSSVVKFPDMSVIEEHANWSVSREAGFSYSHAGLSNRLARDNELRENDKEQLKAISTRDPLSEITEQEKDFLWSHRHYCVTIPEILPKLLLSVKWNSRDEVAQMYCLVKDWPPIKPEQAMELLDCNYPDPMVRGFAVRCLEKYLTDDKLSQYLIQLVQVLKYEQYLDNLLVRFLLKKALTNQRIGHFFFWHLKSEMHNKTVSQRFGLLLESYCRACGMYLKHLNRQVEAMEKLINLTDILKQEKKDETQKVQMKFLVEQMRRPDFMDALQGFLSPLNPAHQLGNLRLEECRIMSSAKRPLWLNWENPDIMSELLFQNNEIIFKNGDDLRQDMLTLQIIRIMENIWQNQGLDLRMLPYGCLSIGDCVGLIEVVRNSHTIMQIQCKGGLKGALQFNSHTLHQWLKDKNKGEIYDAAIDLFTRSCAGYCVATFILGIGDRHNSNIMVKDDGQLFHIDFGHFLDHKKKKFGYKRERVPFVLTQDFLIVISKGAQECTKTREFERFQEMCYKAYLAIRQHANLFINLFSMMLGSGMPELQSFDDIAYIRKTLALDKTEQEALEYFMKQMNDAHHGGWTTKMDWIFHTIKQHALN
# Chain of PIK3CA/PIK3R1 (P27986 whole entry partner, looked up): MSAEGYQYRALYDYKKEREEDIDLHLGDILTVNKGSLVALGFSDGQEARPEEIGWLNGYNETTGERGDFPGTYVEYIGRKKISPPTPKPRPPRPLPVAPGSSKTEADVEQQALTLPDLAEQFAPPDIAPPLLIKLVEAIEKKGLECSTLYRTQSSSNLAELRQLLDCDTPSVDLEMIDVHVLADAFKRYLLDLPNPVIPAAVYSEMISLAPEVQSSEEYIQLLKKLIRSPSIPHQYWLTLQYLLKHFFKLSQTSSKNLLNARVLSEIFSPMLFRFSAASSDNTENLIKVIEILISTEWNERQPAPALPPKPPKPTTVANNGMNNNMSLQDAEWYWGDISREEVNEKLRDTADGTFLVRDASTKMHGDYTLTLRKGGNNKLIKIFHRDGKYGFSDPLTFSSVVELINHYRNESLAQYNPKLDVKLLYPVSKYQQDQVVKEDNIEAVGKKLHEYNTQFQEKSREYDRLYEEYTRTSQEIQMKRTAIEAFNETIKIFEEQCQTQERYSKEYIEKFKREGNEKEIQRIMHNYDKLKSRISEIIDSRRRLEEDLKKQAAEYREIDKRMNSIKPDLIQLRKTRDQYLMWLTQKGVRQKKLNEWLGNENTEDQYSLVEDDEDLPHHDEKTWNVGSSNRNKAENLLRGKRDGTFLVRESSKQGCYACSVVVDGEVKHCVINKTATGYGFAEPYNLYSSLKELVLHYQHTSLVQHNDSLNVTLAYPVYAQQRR
# From the text: as §1
# EPHA8 = EPHA8 (Homo sapiens (Human), UniProt P29322); conditions: read-out: % Inhibition at 10 μM of the test compound
# AMPKα2/β1/γ1 = AMPKα2/β1/γ1 (Homo sapiens (Human), UniProt P54646); conditions: read-out: % Inhibition at 10 μM of the test compound
# [1] = read-out: % Inhibition at 10 μM of the test compound
compound,measurement,setting,value
"CCC1(c2ccccc2)C2=C(CC(C)(C)CC2=O)Nc2ncsc21 (centres unmarked) [Compound 1, 9-Ethyl-6,6-dimethyl-9-phenyl-5,6,7,9-tetrahydrothiazolo[4,5-b]quinolin-8(4H)-one]",inhibition at 10 µM,EGFR(d746-750/T790M),-5.6%
same,inhibition at 10 µM,MNK2,-2.8%
same,inhibition at 10 µM,MER,3.8%
same,inhibition at 10 µM,PASK,-5.2%
same,inhibition at 10 µM,LYNb,0.8%
same,inhibition at 10 µM,HER2,-1%
same,inhibition at 10 µM,SGK,-1.7%
same,inhibition at 10 µM,TRKA,5.4%
same,inhibition at 10 µM,BRSK1,-12.9%
same,inhibition at 10 µM,MET,8.9%
same,inhibition at 10 µM,PKCι,-2.7%
same,inhibition at 10 µM,FRK,8.4%
same,inhibition at 10 µM,FGFR4(V550E),4%
same,inhibition at 10 µM,PLK1,-5.3%
same,% Inhibition at 10 μM of the test compound,MAP3K1_Cascade,−1.0%
same,inhibition at 10 µM,AKT1,0.7%
same,inhibition at 10 µM,MGC42105,4.3%
same,inhibition at 10 µM,SPHK2,-0.8%
same,inhibition at 10 µM,DYRK3,0.3%
same,inhibition at 10 µM,ALK,-3.1%
same,inhibition at 10 µM,PDHK2,0.1%
same,inhibition at 10 µM,JNK3,3.1%
same,inhibition at 10 µM,JNK1,-7.3%
same,inhibition at 10 µM,PKCε,-0.7%
same,inhibition at 10 µM,FGFR3(K650E),-3%
same,inhibition at 10 µM,CaMK2α,-1.6%
same,inhibition at 10 µM,CK1γ1,1.2%
same,inhibition at 10 µM,PKR,-8.9%
same,inhibition at 10 µM,EPHA2,-0.3%
same,inhibition at 10 µM,MNK1,-3.4%
same,inhibition at 10 µM,MSK1,-1%
same,inhibition at 10 µM,PDGFRβ,2.5%
same,IC50,CDK2/CycA2,6.91 µM
same,inhibition at 10 µM,CDK2/CycA2; [1],58.8%
same,IC50,CDK3/CycE1,6.22 µM
same,inhibition at 10 µM,CDK3/CycE1; [1],55.5%
same,IC50,CDK2/CycE1,8.52 µM
same,inhibition at 10 µM,CDK2/CycE1; [1],53.4%
same,IC50,CDK9/CycT1,6.48 µM
same,inhibition at 10 µM,CDK9/CycT1; [1],60.5%
same,IC50,PIK3CA/PIK3R1,> 10 µM
same,inhibition at 10 µM,PIK3CA/PIK3R1; [1],65.1%
same,inhibition at 10 µM,EPHA8,3%
same,inhibition at 10 µM,AMPKα2/β1/γ1,-4.1%
